Measurements published in PubChem BioAssay AID1259407 (Chemical Carcinogenesis Research Information System (CCRIS), 2018).
Active and inactive are the calls of the source. The rule behind the calls is not given here.

Test system: CCRIS mutagenicity, Ames/micronucleus/aberration tests
Test: CCRIS mutagenicity studies
[1] = Test System: AMES SALMONELLA TYPHIMURIUM, Strain/Indicator: TA98, Metabolic Activation: NONE, Method: PREINCUBATION
[2] = Test System: AMES SALMONELLA TYPHIMURIUM, Strain/Indicator: TA100, Metabolic Activation: NONE, Method: PREINCUBATION
[3] = Test System: AMES SALMONELLA TYPHIMURIUM, Strain/Indicator: TA100, Metabolic Activation: NONE, Method: STANDARD PLATE
[4] = Test System: AMES SALMONELLA TYPHIMURIUM, Strain/Indicator: TA98, Metabolic Activation: NONE, Method: STANDARD PLATE
[5] = Test System: AMES SALMONELLA TYPHIMURIUM, Strain/Indicator: TA100, Metabolic Activation: RAT, LIVER, S-9, AROCLOR 1254, Method: STANDARD PLATE

C=C(C)CC(C)(C)C
mutagenic call [1]: inactive; negative | mutagenic call (Test System: AMES SALMONELLA TYPHIMURIUM, Strain/Indicator: TA98, Metabolic Activation: RAT, LIVER, S-9, PHENOBARBITAL AND BETA-NAPHTHOFLAVONE, Method: PREINCUBATION): inactive; negative | mutagenic call [2]: inactive; negative | mutagenic call (Test System: AMES SALMONELLA TYPHIMURIUM, Strain/Indicator: TA100, Metabolic Activation: RAT, LIVER, S-9, PHENOBARBITAL AND BETA-NAPHTHOFLAVONE, Method: PREINCUBATION): inactive; negative | mutagenic call (Test System: AMES SALMONELLA TYPHIMURIUM, Strain/Indicator: TA102, Metabolic Activation: NONE, Method: PREINCUBATION): inactive; negative | mutagenic call (Test System: AMES SALMONELLA TYPHIMURIUM, Strain/Indicator: TA102, Metabolic Activation: RAT, LIVER, S-9, PHENOBARBITAL AND BETA-NAPHTHOFLAVONE, Method: PREINCUBATION): inactive; negative | mutagenic call (Test System: AMES SALMONELLA TYPHIMURIUM, Strain/Indicator: TA104, Metabolic Activation: NONE, Method: PREINCUBATION): inactive; negative | mutagenic call (Test System: AMES SALMONELLA TYPHIMURIUM, Strain/Indicator: TA104, Metabolic Activation: RAT, LIVER, S-9, PHENOBARBITAL AND BETA-NAPHTHOFLAVONE, Method: PREINCUBATION): inactive; negative | mutagenic call (Test System: AMES SALMONELLA TYPHIMURIUM, Strain/Indicator: TA1535, Metabolic Activation: NONE, Method: PREINCUBATION): inactive; negative | mutagenic call (Test System: AMES SALMONELLA TYPHIMURIUM, Strain/Indicator: TA1535, Metabolic Activation: RAT, LIVER, S-9, PHENOBARBITAL AND BETA-NAPHTHOFLAVONE, Method: PREINCUBATION): inactive; negative | mutagenic call (Test System: AMES SALMONELLA TYPHIMURIUM, Strain/Indicator: TA1537, Metabolic Activation: NONE, Method: PREINCUBATION): inactive; negative | mutagenic call (Test System: AMES SALMONELLA TYPHIMURIUM, Strain/Indicator: TA1537, Metabolic Activation: RAT, LIVER, S-9, PHENOBARBITAL AND BETA-NAPHTHOFLAVONE, Method: PREINCUBATION): inactive; negative | mutagenic call (Test System: E. COLI, Strain/Indicator: WP2UVRA/PKM101, Metabolic Activation: NONE, Method: PREINCUBATION): inactive; negative | mutagenic call (Test System: E. COLI, Strain/Indicator: WP2UVRA/PKM101, Metabolic Activation: RAT, LIVER, S-9, PHENOBARBITAL AND BETA-NAPHTHOFLAVONE, Method: PREINCUBATION): inactive; negative | mutagenic call (Test System: E. COLI, Strain/Indicator: WP2UVRA, Metabolic Activation: NONE, Method: PREINCUBATION): inactive; negative | mutagenic call (Test System: E. COLI, Strain/Indicator: WP2UVRA, Metabolic Activation: RAT, LIVER, S-9, PHENOBARBITAL AND BETA-NAPHTHOFLAVONE, Method: PREINCUBATION): inactive; negative

CC(=O)OC/N=[N+](/C)[O-]
mutagenic call (Test System: AMES SALMONELLA TYPHIMURIUM, Strain/Indicator: G46, Metabolic Activation: NONE, Method: PREINCUBATION): active; positive | mutagenic call (Test System: AMES SALMONELLA TYPHIMURIUM, Strain/Indicator: TA1535, Metabolic Activation: NONE, Method: STANDARD PLATE): active; positive | mutagenic call (Test System: CHINESE HAMSTER V-79, Strain/Indicator: V-79/OUABAIN, Metabolic Activation: NONE, Method: STANDARD PLATE): active; positive | mutagenic call (Test System: E. COLI, Strain/Indicator: WP2 UVRA, Metabolic Activation: HAMSTER, LIVER, S-9, AROCLOR 1254, Method: PREINCUBATION): inactive; negative | mutagenic call (Test System: E. COLI, Strain/Indicator: WP2 UVRA, Metabolic Activation: HAMSTER, LIVER, S-9, AROCLOR 1254, Method: STANDARD PLATE): inactive; negative | mutagenic call (Test System: E. COLI, Strain/Indicator: WP2 UVRA, Metabolic Activation: HAMSTER, LIVER, S-9, Method: PREINCUBATION): inactive; negative | mutagenic call (Test System: E. COLI, Strain/Indicator: WP2 UVRA, Metabolic Activation: HAMSTER, LIVER, S-9, Method: STANDARD PLATE): inactive; negative | mutagenic call (Test System: E. COLI, Strain/Indicator: WP2 UVRA, Metabolic Activation: MOUSE, LIVER, S-9, AROCLOR 1254, Method: PREINCUBATION): inactive; negative | mutagenic call (Test System: E. COLI, Strain/Indicator: WP2 UVRA, Metabolic Activation: MOUSE, LIVER, S-9, AROCLOR 1254, Method: STANDARD PLATE): inactive; negative | mutagenic call (Test System: E. COLI, Strain/Indicator: WP2 UVRA, Metabolic Activation: MOUSE, LIVER, S-9, Method: PREINCUBATION): inactive; negative | mutagenic call (Test System: E. COLI, Strain/Indicator: WP2 UVRA, Metabolic Activation: MOUSE, LIVER, S-9, Method: STANDARD PLATE): inactive; negative | mutagenic call (Test System: E. COLI, Strain/Indicator: WP2 UVRA, Metabolic Activation: NONE, Method: PREINCUBATION): inactive; negative | mutagenic call (Test System: E. COLI, Strain/Indicator: WP2 UVRA, Metabolic Activation: NONE, Method: STANDARD PLATE): inactive; negative | mutagenic call (Test System: E. COLI, Strain/Indicator: WP2 UVRA, Metabolic Activation: RAT, LIVER, S-9, AROCLOR 1254, Method: PREINCUBATION): inactive; negative | mutagenic call (Test System: E. COLI, Strain/Indicator: WP2 UVRA, Metabolic Activation: RAT, LIVER, S-9, AROCLOR 1254, Method: STANDARD PLATE): inactive; negative | mutagenic call (Test System: E. COLI, Strain/Indicator: WP2 UVRA, Metabolic Activation: RAT, LIVER, S-9, Method: PREINCUBATION): inactive; negative | mutagenic call (Test System: E. COLI, Strain/Indicator: WP2 UVRA, Metabolic Activation: RAT, LIVER, S-9, Method: STANDARD PLATE): inactive; negative | mutagenic call (Test System: MOUSE LYMPHOMA, Strain/Indicator: L5178Y (TK+/TK-), Metabolic Activation: NONE, Method: SUSPENSION/PLATE): active; positive | mutagenic call (Test System: MOUSE LYMPHOMA, Strain/Indicator: L5178Y (TK+/TK-), Metabolic Activation: RAT, LIVER, S-9, AROCLOR 1254, Method: SUSPENSION/PLATE): active; positive

[O-][n+]1cccc2c1C=C[C@H]1O[C@@H]21
mutagenic call [3]: inactive; negative | mutagenic call (Test System: AMES SALMONELLA TYPHIMURIUM, Strain/Indicator: TA100, Metabolic Activation: RAT, LIVER, S-9, AROCLOR 1254 (10% OR 20%), Method: STANDARD PLATE): inactive; negative

CN(C)c1ccc(-c2ccc(N(C)C)cc2)cc1
mutagenic call [1]: inactive; negative | mutagenic call [4]: inactive; negative | mutagenic call (Test System: AMES SALMONELLA TYPHIMURIUM, Strain/Indicator: TA98, Metabolic Activation: RAT LIVER S-9, AROCLOR 1254, Method: PREINCUBATION): active; positive | mutagenic call (Test System: AMES SALMONELLA TYPHIMURIUM, Strain/Indicator: TA98, Metabolic Activation: RAT, LIVER, S-9, AROCLOR 1254, Method: STANDARD PLATE): active; positive | mutagenic call [2]: inactive; negative | mutagenic call [3]: inactive; negative | mutagenic call (Test System: AMES SALMONELLA TYPHIMURIUM, Strain/Indicator: TA100, Metabolic Activation: RAT LIVER S-9, AROCLOR 1254, Method: PREINCUBATION): inactive; negative | mutagenic call [5]: inactive; negative

CN(C)CCNC(=O)c1cccc2c(=O)c3ccccc3sc12
mutagenic call (Test System: AMES SALMONELLA TYPHIMURIUM, Strain/Indicator: TA1537, Metabolic Activation: NONE, Method: STANDARD PLATE): active; positive

OC1C=Cc2cc3c(cc2C1O)-c1cccc2cccc-3c12 (stereo unspecified)
mutagenic call [5]: active; positive

CC12OOC1(C)c1ccc3cccnc3c1O2 (stereo unspecified)
mutagenic call [2]: inactive; negative

O=S(=O)(O)OCc1ccc2ccc3cccc4ccc1c2c34
mutagenic call [1]: active; positive

ClCc1ccc2c3c(cccc13)-c1ccccc1-2
mutagenic call [4]: active; positive | mutagenic call [3]: active; positive
